Activity calls are given as the source filed them. The rule behind the calls is not given here.
System: rodent lifetime carcinogenesis bioassay, tumor incidence TD50
Assay: carcinogenic potency in animals, long-term in vivo studies, CPDB compilation (AID 1745844)

Question: What does the source list for `CN=[N+](C)[O-]`?
Answer: TD50 (rat, strain Fischer 344, males, by gavage, site: Zymbal's gland, lesion: carcinoma, dosed 30 weeks, study length 65 weeks): 0.204 mg/kg/day; TD50 (rat, strain Fischer 344, males, by gavage, site: colon, lesion: malignant tumor, dosed 30 weeks, study length 65 weeks): 0.171 mg/kg/day; TD50 (rat, strain Fischer 344, males, by gavage, site: colon, lesion: one or several types, types not named, dosed 30 weeks, study length 65 weeks): 0.102 mg/kg/day; TD50 (rat, strain Fischer 344, males, by gavage, site: kidney, lesion: mesenchymal neoplasm, dosed 30 weeks, study length 65 weeks): 0.3 mg/kg/day; carcinogen call (rat, strain Fischer 344, males, by gavage, site: liver, lesion: one or several types, types not named, dosed 30 weeks, study length 65 weeks): negative (inactive); TD50 (rat, strain Fischer 344, males, in drinking water, site: colon, lesion: several types, types named in the paper, dosed 30 weeks, study length 100 weeks): 0.585 mg/kg/day; TD50 (rat, strain Fischer 344, males, in drinking water, site: kidney, lesion: several types, types named in the paper, dosed 30 weeks, study length 100 weeks): 0.388 mg/kg/day; TD50 (rat, strain Fischer 344, males, in drinking water, site: liver, lesion: hemangiosarcoma, dosed 30 weeks, study length 100 weeks): 0.982 mg/kg/day; TD50 (rat, strain Fischer 344, males, in drinking water, site: liver, lesion: hepatocellular carcinoma, dosed 30 weeks, study length 100 weeks): 0.0677 mg/kg/day; TD50 (rat, strain Fischer 344, males, in drinking water, site: liver, lesion: neoplastic nodule, dosed 30 weeks, study length 100 weeks): 28.6 mg/kg/day; TD50 (rat, strain Fischer 344, males, in drinking water, site: liver, lesion: several types, types named in the paper, dosed 30 weeks, study length 100 weeks): 0.0302 mg/kg/day

Question: With `CN(C)c1ccc(N=Nc2ccccc2)cc1` as the molecule, how does the TD50 (monkey, strain Rhesus [Macaca mulatta], both sexes, in feed, site: any site (literature study), lesion: malignant tumor, dosed 258 weeks, study length 1019 weeks) read?
Answer: Its TD50 is 17.2 mg/kg/day.

Question: And the TD50 (monkey, strain Rhesus [Macaca mulatta], both sexes, in feed, site: lung, lesion: alveolar/bronchiolar carcinoma, dosed 258 weeks, study length 1019 weeks)?
Answer: Its TD50 is 4.84 mg/kg/day.

Question: What about the TD50 (rat, strain Wistar albino, females, in feed, site: liver, lesion: bile duct tumor, dosed 33 weeks, study length 56 weeks) of the same molecule?
Answer: The TD50 was 4.9 mg/kg/day.

Question: What about the TD50 (rat, strain Wistar albino, females, in feed, site: liver, lesion: hepatoma, dosed 33 weeks, study length 56 weeks) of the same molecule?
Answer: The TD50 was 3.31 mg/kg/day.

Question: And the TD50 (rat, strain Wistar albino, females, in feed, site: liver, lesion: liver-cell carcinoma, dosed 33 weeks, study length 56 weeks)?
Answer: The TD50 was 7.42 mg/kg/day.

Question: How did the TD50 (rat, strain Sprague-Dawley, females, in feed, site: all sites, lesion: lymphoblastic lymphoma, dosed 46 weeks, study length 66 weeks) turn out when `O=C1OC(CN2CCOCC2)CN1/N=C/c1ccc([N+](=O)[O-])o1` (centres undefined) was run?
Answer: The TD50 was 39 mg/kg/day.

Question: What about the TD50 (rat, strain Sprague-Dawley, females, in feed, site: any site (literature study), lesion: several types, types named in the paper, dosed 46 weeks, study length 66 weeks) of the same molecule?
Answer: The TD50 was 2.81 mg/kg/day.

Question: What about the TD50 (rat, strain Sprague-Dawley, females, in feed, site: kidney/pelvis, lesion: transitional-cell carcinoma, dosed 46 weeks, study length 66 weeks) of the same molecule?
Answer: Its TD50 is 149 mg/kg/day.

Question: What about the TD50 (rat, strain Sprague-Dawley, females, in feed, site: mammary gland, lesion: adenocarcinoma, dosed 46 weeks, study length 66 weeks) of the same molecule?
Answer: The TD50 was 6.33 mg/kg/day.

Question: And the TD50 (rat, strain Sprague-Dawley, females, in feed, site: mammary gland, lesion: several types, types named in the paper, dosed 46 weeks, study length 66 weeks)?
Answer: Its TD50 is 2.81 mg/kg/day.

Question: Which results are given for `O=C(Nc1ccc([N+](=O)[O-])cc1Cl)c1cc(Cl)ccc1O`?
Answer: carcinogen call (mouse, strain B6C3F1, females, in feed, site: any site (literature study), lesion: several types, types named in the paper, dosed 78 weeks, study length 91 weeks): negative (inactive); TD50 (mouse, strain B6C3F1, males, in feed, site: any site (literature study), lesion: several types, types named in the paper, dosed 78 weeks, study length 91 weeks): 175 mg/kg/day; TD50 (rat, strain Osborne-Mendel, females, in feed, site: any site (literature study), lesion: several types, types named in the paper, dosed 78 weeks, study length 110 weeks): 2070 mg/kg/day; TD50 (rat, strain Osborne-Mendel, females, in feed, site: liver, lesion: hepatocellular adenoma + hepatocellular carcinoma + neoplastic nodule, dosed 78 weeks, study length 110 weeks): 13300 mg/kg/day; TD50 (rat, strain Osborne-Mendel, females, in feed, site: thyroid gland, lesion: c-cell adenoma + c-cell carcinoma, dosed 78 weeks, study length 110 weeks): 6670 mg/kg/day; TD50 (rat, strain Osborne-Mendel, females, in feed, site: uterus, lesion: endometrial stromal polyp, dosed 78 weeks, study length 110 weeks): 5060 mg/kg/day (inactive); carcinogen call (rat, strain Osborne-Mendel, males, in feed, site: any site (literature study), lesion: several types, types named in the paper, dosed 78 weeks, study length 110 weeks): negative (inactive)

Question: What does the source list for `Cn1c(N)nc2c3cccnc3ccc21`?
Answer: TD50 (monkey, strain Cynomolgus [Macaca fascicularis], both sexes, by gavage, site: any site (literature study), lesion: malignant tumor, dosed 485 weeks, study length 485 weeks): 0.374 mg/kg/day; TD50 (monkey, strain Cynomolgus [Macaca fascicularis], both sexes, by gavage, site: liver, lesion: hepatocellular carcinoma, dosed 485 weeks, study length 485 weeks): 0.374 mg/kg/day; TD50 (mouse, strain CDF1, females, in feed, site: forestomach, lesion: several types, types named in the paper, dosed 96 weeks, study length 96 weeks): 62.4 mg/kg/day; TD50 (mouse, strain CDF1, females, in feed, site: liver, lesion: hepatocellular carcinoma, dosed 96 weeks, study length 96 weeks): 24.1 mg/kg/day; TD50 (mouse, strain CDF1, females, in feed, site: liver, lesion: several types, types named in the paper, dosed 96 weeks, study length 96 weeks): 17.5 mg/kg/day; TD50 (mouse, strain CDF1, females, in feed, site: lung, lesion: several types, types named in the paper, dosed 96 weeks, study length 96 weeks): 67.9 mg/kg/day; TD50 (mouse, strain CDF1, males, in feed, site: forestomach, lesion: several types, types named in the paper, dosed 96 weeks, study length 96 weeks): 42.3 mg/kg/day; TD50 (mouse, strain CDF1, males, in feed, site: forestomach, lesion: squamous-cell carcinoma, dosed 96 weeks, study length 96 weeks): 153 mg/kg/day; TD50 (mouse, strain CDF1, males, in feed, site: liver, lesion: hepatocellular carcinoma, dosed 96 weeks, study length 96 weeks): 91.6 mg/kg/day; TD50 (mouse, strain CDF1, males, in feed, site: liver, lesion: several types, types named in the paper, dosed 96 weeks, study length 96 weeks): 48.6 mg/kg/day; TD50 (mouse, strain CDF1, males, in feed, site: lung, lesion: adenocarcinoma, dosed 96 weeks, study length 96 weeks): 60.2 mg/kg/day; TD50 (mouse, strain CDF1, males, in feed, site: lung, lesion: several types, types named in the paper, dosed 96 weeks, study length 96 weeks): 22.4 mg/kg/day; TD50 (rat, strain F344/DuCrj, females, in feed, site: Zymbal's gland, lesion: squamous-cell carcinoma, dosed 72 weeks, study length 72 weeks): 4.38 mg/kg/day; TD50 (rat, strain F344/DuCrj, females, in feed, site: clitoral gland, lesion: squamous-cell carcinoma, dosed 72 weeks, study length 72 weeks): 7.11 mg/kg/day; TD50 (rat, strain F344/DuCrj, females, in feed, site: large intestine, lesion: adenocarcinoma, dosed 72 weeks, study length 72 weeks): 19.3 mg/kg/day; TD50 (rat, strain F344/DuCrj, females, in feed, site: liver, lesion: hepatocellular carcinoma, dosed 72 weeks, study length 72 weeks): 8.24 mg/kg/day; TD50 (rat, strain F344/DuCrj, females, in feed, site: oral cavity, lesion: squamous-cell carcinoma, dosed 72 weeks, study length 72 weeks): 195 mg/kg/day; TD50 (rat, strain F344/DuCrj, females, in feed, site: skin, lesion: squamous-cell carcinoma, dosed 72 weeks, study length 72 weeks): 63.2 mg/kg/day; TD50 (rat, strain F344/DuCrj, females, in feed, site: small intestine, lesion: adenocarcinoma, dosed 72 weeks, study length 72 weeks): 195 mg/kg/day; TD50 (rat, strain F344/DuCrj, males, in feed, site: Zymbal's gland, lesion: squamous-cell carcinoma, dosed 55 weeks, study length 55 weeks): 0.999 mg/kg/day; TD50 (rat, strain F344/DuCrj, males, in feed, site: large intestine, lesion: adenocarcinoma, dosed 55 weeks, study length 55 weeks): 2.34 mg/kg/day; TD50 (rat, strain F344/DuCrj, males, in feed, site: liver, lesion: hepatocellular carcinoma, dosed 55 weeks, study length 55 weeks): 2.08 mg/kg/day; TD50 (rat, strain F344/DuCrj, males, in feed, site: oral cavity, lesion: squamous-cell carcinoma, dosed 55 weeks, study length 55 weeks): 44.8 mg/kg/day; TD50 (rat, strain F344/DuCrj, males, in feed, site: skin, lesion: squamous-cell carcinoma, dosed 55 weeks, study length 55 weeks): 4.16 mg/kg/day; TD50 (rat, strain F344/DuCrj, males, in feed, site: small intestine, lesion: adenocarcinoma, dosed 55 weeks, study length 55 weeks): 6.45 mg/kg/day; TD50 (rat, strain Fischer 344, females, in feed, site: Zymbal's gland, lesion: one or several types, types not named, dosed 53 weeks, study length 78 weeks): 2.26 mg/kg/day; TD50 (rat, strain Fischer 344, females, in feed, site: liver, lesion: hepatocellular carcinoma, dosed 53 weeks, study length 78 weeks): 5.06 mg/kg/day; TD50 (rat, strain Fischer 344, females, in feed, site: lung, lesion: adenoma, dosed 53 weeks, study length 78 weeks): 16.2 mg/kg/day; TD50 (rat, strain Fischer 344, females, in feed, site: mammary gland, lesion: one or several types, types not named, dosed 53 weeks, study length 78 weeks): 3.52 mg/kg/day; TD50 (rat, strain Fischer 344, females, in feed, site: preputial gland, lesion: one or several types, types not named, dosed 53 weeks, study length 78 weeks): 3.19 mg/kg/day; TD50 (rat, strain Fischer 344, females, in feed, site: sebaceous gland, lesion: several types, types named in the paper, dosed 53 weeks, study length 78 weeks): 32.9 mg/kg/day; TD50 (rat, strain Fischer 344, males, by gavage, site: Zymbal's gland, lesion: squamous-cell carcinoma, dosed 35 weeks, study length 52 weeks): 0.287 mg/kg/day; TD50 (rat, strain Fischer 344, males, by gavage, site: any site (literature study), lesion: several types, types named in the paper, dosed 35 weeks, study length 52 weeks): 0.287 mg/kg/day; TD50 (rat, strain Fischer 344, males, by gavage, site: colon, lesion: adenocarcinoma, dosed 35 weeks, study length 52 weeks): 0.803 mg/kg/day; TD50 (rat, strain Fischer 344, males, by gavage, site: liver, lesion: hepatocellular carcinoma, dosed 35 weeks, study length 52 weeks): 0.579 mg/kg/day; TD50 (rat, strain Fischer 344, males, by gavage, site: skin, lesion: squamous-cell carcinoma, dosed 35 weeks, study length 52 weeks): 0.579 mg/kg/day; TD50 (rat, strain Fischer 344, males, by gavage, site: small intestine, lesion: adenocarcinoma, dosed 35 weeks, study length 52 weeks): 1.55 mg/kg/day; TD50 (rat, strain Fischer 344, males, in feed, site: Zymbal's gland, lesion: one or several types, types not named, dosed 53 weeks, study length 63 weeks): 1.2 mg/kg/day; TD50 (rat, strain Fischer 344, males, in feed, site: colon, lesion: one or several types, types not named, dosed 53 weeks, study length 63 weeks): 10.5 mg/kg/day; TD50 (rat, strain Fischer 344, males, in feed, site: liver, lesion: hepatocellular carcinoma, dosed 53 weeks, study length 63 weeks): 10.5 mg/kg/day; TD50 (rat, strain Fischer 344, males, in feed, site: lung, lesion: several types, types named in the paper, dosed 53 weeks, study length 63 weeks): 27.1 mg/kg/day; TD50 (rat, strain Fischer 344, males, in feed, site: preputial gland, lesion: one or several types, types not named, dosed 53 weeks, study length 63 weeks): 6.87 mg/kg/day; TD50 (rat, strain Fischer 344, males, in feed, site: sebaceous gland, lesion: several types, types named in the paper, dosed 53 weeks, study length 63 weeks): 0.998 mg/kg/day

Question: For `O.O=S(=O)(O)O.[Cd]`, which carcinogen call (mouse, strain Swiss, males, by gavage, site: liver, lesion: several types, types named in the paper, dosed 78 weeks, study length 78 weeks) is on record?
Answer: Its carcinogen call is “negative (inactive)”.

Question: And the TD50 (mouse, strain Swiss, males, by gavage, site: lung, lesion: several types, types named in the paper, dosed 78 weeks, study length 78 weeks)?
Answer: The TD50 was 1.78 mg/kg/day (inactive).

Question: What about the TD50 (rat, strain C.B. hooded, males, by gavage, site: liver, lesion: liver-cell adenoma, dosed 104 weeks, study length 114 weeks) of the same molecule?
Answer: Its TD50 is 1.17 mg/kg/day (inactive).
